Assay results as given in paper PMC2990756, “Quantitative High-Throughput Screening Identifies 8-Hydroxyquinolines as Cell-Active Histone Demethylase Inhibitors” (PLoS ONE, 2010).
Where two headings read alike, the source gives them in different places.

How the values were obtained:
Format in all cases: biochemical
JMJD2E (KDM4E) = target: T1, JMJD2E (KDM4E) (Homo sapiens, UniProt B2RXH2); assay: qHTS fluorescence FDH-coupled JMJD2E demethylase assay
T1 construct: The catalytic domain of human JMJD2E (residues 1–337); His6 (N); made in house; host or cells: E. coli
T1 sequence (B2RXH2 1-337): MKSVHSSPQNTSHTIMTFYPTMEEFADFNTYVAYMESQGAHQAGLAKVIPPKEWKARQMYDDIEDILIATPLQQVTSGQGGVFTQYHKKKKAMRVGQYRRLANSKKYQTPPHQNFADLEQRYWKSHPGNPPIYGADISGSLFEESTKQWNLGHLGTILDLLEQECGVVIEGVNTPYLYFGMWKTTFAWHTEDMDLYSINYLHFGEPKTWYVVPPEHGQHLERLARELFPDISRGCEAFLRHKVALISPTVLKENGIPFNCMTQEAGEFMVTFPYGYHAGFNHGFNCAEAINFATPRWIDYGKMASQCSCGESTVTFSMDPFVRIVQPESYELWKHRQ

[1] = target: T2, formaldehyde dehydrogenase (FDH) (Pseudomonas putida, UniProt P46154); assay: FDH coupling enzyme counterscreen; conditions: Table S1, FDH counterscreen; for IC50: unit not in table, from Figure 2, read-out: qHTS Data: jmjd2e fdh IC50
T2 construct: purchased Sigma-Aldrich
T2 sequence (P46154 whole entry): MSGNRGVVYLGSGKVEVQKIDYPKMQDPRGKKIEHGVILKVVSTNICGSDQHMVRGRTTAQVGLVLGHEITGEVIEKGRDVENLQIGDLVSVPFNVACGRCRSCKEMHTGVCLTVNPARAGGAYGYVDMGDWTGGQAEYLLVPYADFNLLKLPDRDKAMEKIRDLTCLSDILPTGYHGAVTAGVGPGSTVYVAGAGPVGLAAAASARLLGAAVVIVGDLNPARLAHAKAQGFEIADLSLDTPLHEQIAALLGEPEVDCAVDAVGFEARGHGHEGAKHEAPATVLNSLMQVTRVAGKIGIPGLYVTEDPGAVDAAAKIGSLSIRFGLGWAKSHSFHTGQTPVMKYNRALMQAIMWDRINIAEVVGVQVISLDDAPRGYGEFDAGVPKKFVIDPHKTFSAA
Description: Dimethylsulfoxide certified ACS grade (DMSO) was from Fisher, Inc. HEPES buffer was obtained from Gibco. […] Black solid-bottom 1,536-well assay plates were from Greiner Bio-One (Monroe, NC).

JMJD2E = target: T3, JMJD2E (Homo sapiens, UniProt B2RXH2); assay: JMJD2E FDH-coupled assay under low and high iron conditions (iron chelation profile); set-up: The catalytic domain of human JMJD2E (residues 1–337); His6 (N); made in house; host or cells: E. coli; conditions: Table S1; for IC50: unit not in table, from Figure 2
T3 sequence (B2RXH2 1-337): T1 sequence (B2RXH2 1-337)
Protocol: The prioritized compounds were also evaluated in the screening assay using two different ferrous ion concentrations (termed high iron and low iron, respectively), in order to assess their propensity for iron chelation.
The ratio of IC50 values under high iron to low iron was calculated for each compound.

[2] = Table S1, unit not in table, from Figure 2, read-out: qHTS Data: jmjd2e IC50
[3] = high iron, head says 20 µM FAS, read-out: qHTS Data: jmjd2e fas20um IC50
[4] = low iron 2.5 µM FAS, read-out: qHTS Data: jmjd2e fas2.5um IC50

Structure (SMILES) | IC50 (JMJD2E (KDM4E); [2]) [µM] | qHTS Data: jmjd2e fdh CurveClass [1] | IC50 (JMJD2E; [3]) [µM] | IC50 (JMJD2E; [4]) [µM] | qHTS Data: jmjd2e fas2.5um Curve comment (JMJD2E; low iron 2.5 µM FAS) | qHTS Data: jmjd2e fas20um CurveClass (JMJD2E; high iron) | IC50 [1] [µM] | IC50 (JMJD2E (KDM4E); Figure 3, substituted 8-hydroxyquinolines against JMJD2E, read-out: IC50 /μM (qHTS IC50, FDH-coupled assay)) [µM]
O=C1C=CC(=O)c2c(O)cccc21 [compound 26749198] | 7.08 | Inactive | 14.1 | 5.01 |  |  |  | 
Cl.NCCc1cc(O)c(O)cc1O [compound 26748180] | 6.31 | Poor quality curve | 7.94 | 2.51 |  |  |  | 
CCN(CC)c1ccc(N=Cc2c(C)[nH]c3ccccc23)cc1 [compound 22412852] | 0.79 | Inactive | 7.94 | 12.6 | Poor quality curve |  |  | 
CCOC(=O)C1CCN(Cc2ccc(O)c3ncccc23)CC1 [compound 850072] | 8.91 | Inconclusive | 2 | 4.47 |  |  |  | 
COC(=O)c1cc(=O)c(O)c2c(O)c(O)ccc2c1 [compound 26749939] | 8.91 | Inactive | 22.4 | 7.94 |  |  |  | 
CC(C)C1C(=O)C(C(N)=O)=C(O)[C@@]2(O)C(=O)C3=C(O)c4c(O)ccc(N(C)C)c4C[C@H]3C[C@@H]12.Cl (some centres unmarked) [compound 50106632] | 10 | Inactive | 12.6 | 12.6 |  | Poor quality curve |  | 
CCOC(=O)Cc1csc(-n2sc3ccccc3c2=O)n1 [compound 3716597] | 10 | Inactive |  | 7.08 |  | Inactive |  | 
Cl.NC(CO)C(=O)NNCc1ccc(O)c(O)c1O (centres unmarked) [compound 855739] | 2.24 | Inactive | 3.98 | 1.78 |  |  |  | 
COc1ccc(-c2cc(=O)n(CCC#N)[nH]2)cc1 [compound 17508964] | 1.78 | Inactive | 12.6 |  | Inactive |  |  | 
O=C1C=C(O)c2cccc(O)c2C1=O [compound 26724134] | 7.94 | Inactive | 19.9 | 14.1 | Poor quality curve |  |  | 
Oc1c(C(Nc2nccs2)c2ccc(C(F)(F)F)cc2)ccc2cccnc12 (centres unmarked) [compound 24832893] | 3.55 | Inactive | 12.6 | 28.2 |  |  |  | 
Cl.Nc1ccn([C@@H]2O[C@H](CO)[C@@H](O)[C@@H]2O)c(=O)n1 [compound 50106080] | 0.89 | Inactive | 7.94 |  | Inactive |  |  | 
Cc1cccc(OCC(=O)NCC(=O)N/N=C/c2ccc(O)cc2O)c1 [compound 26671311] | 3.16 | Poor quality curve |  | 4.47 |  | Inactive | 0.25 | 
CN[C@@H](C)[C@H](O)c1ccccc1.CN[C@@H](C)[C@H](O)c1ccccc1.O=S(=O)(O)O [compound 50106282] | 3.55 | Poor quality curve | 7.94 | 2.24 |  | 1.2 | 12.6 | 
O=c1c(O)c(Br)ccc2c(Br)c(O)c(O)c(O)c12 [compound 50110019] | 7.08 | Poor quality curve |  | 5.01 |  | Inconclusive | 28.2 | 
Cc1nc(-c2coc3c(O)c(O)ccc3c2=O)cs1 [compound 50110018] | 7.08 | Poor quality curve | 15.8 | 7.08 |  |  | 17.8 | 

Structure (SMILES) | IC50 (JMJD2E (KDM4E); [2]) [µM] | qHTS Data: jmjd2e fdh CurveClass [1] | IC50 (JMJD2E; [3]) [µM] | IC50 (JMJD2E; [4]) [µM] | qHTS Data: jmjd2e fas2.5um Curve comment (JMJD2E; low iron 2.5 µM FAS) | qHTS Data: jmjd2e fas20um CurveClass (JMJD2E; high iron) | IC50 [1] [µM] | IC50 (JMJD2E (KDM4E); Figure 3, substituted 8-hydroxyquinolines against JMJD2E, read-out: IC50 /μM (qHTS IC50, FDH-coupled assay)) [µM]
Oc1ccc(CNc2ccccc2)c2cccnc12 [compound 842629] | 8.91 | Inactive | 14.1 | 1.26 |  |  |  | 8.9
O=C(/C=C/c1ccccc1)NC(=S)NNC(=O)c1cnccn1 [compound 26725782] | 8.91 | Poor quality curve | 7.08 | 7.08 |  |  | 35.5 | 
C[C@H](N)[C@H](O)c1ccc(O)c(O)c1 [compound 11112447] | 4.47 | Inactive | 2.24 | 3.98 |  |  |  | 
Cc1ccnc(NC(c2cccnc2)c2ccc3cccnc3c2O)c1 (centres unmarked) [compound 24794739] | 5.62 | Poor quality curve | 14.1 | 11.2 |  |  | 0.03 | 
Cc1cc(C(=O)NNC(=S)Nc2ccccc2)nn1C [compound 24796479] | 8.91 | Inactive | 7.94 | 7.08 |  |  |  | 
Cl.NCCc1ccc(O)c(O)c1 [compound 50106387] | 12.6 | Inactive | 3.98 | 11.2 |  |  |  | 
Cc1ccc(O)c(N=NC2=C(O)CC(C)(C)CC2=O)c1 [compound 22414549] | 0.56 | Inactive |  | 5.62 |  | Inactive |  | 
CNCCc1ccc(O)c(O)c1.Cl [compound 50106160] | 14.1 | Poor quality curve | 11.2 | 4.47 |  |  | 3.16 | 
O=c1c(-c2cc(O)c(O)c(O)c2)coc2cc(O)c(O)c(O)c12 [compound 26749510] | 2.82 |  | 14.1 | 1 |  |  | 3.98 | 
COc1ccc(NC(=O)CC2Sc3ncnn3C2=O)cc1 (centres unmarked) [compound 7968088] | 2 |  | 12.6 | 1.78 |  |  | 0.28 | 
CN(C)c1ccnc(C(=O)O)c1 [compound 24815512] | 2.82 | Inactive | 15.8 |  | Inactive | Poor quality curve |  | 
COc1cccc(O)c1O [compound 26749778] | 7.94 | Inactive | 15.8 | 4.47 |  |  |  | 
N#C/C(=C\c1cc(O)c(O)c(O)c1)C(N)=O [compound 26725225] | 1 | Poor quality curve | 8.91 | 2.24 |  |  | 39.8 | 
C=CCc1c(C)nc(C)nc1N/N=C/c1ccccc1O [compound 14741635] | 3.16 | Inactive |  | 3.16 |  | Inactive |  | 
O=C(O)c1cccnc1C(=O)O [compound 11113416] | 1.78 | Inactive | 11.2 | 7.94 |  |  |  | 
O=c1c(O)cccc2cc(O)c(O)c(O)c12 [compound 26665710] | 7.94 | Poor quality curve | 12.6 | 2.24 |  |  | 6.31 | 
